T/C data for 24 molecules are collected here from PubChem BioAssay AID256 (DTP/NCI, 2004).

For the assay, the system named is CD2F1 mice, L1210 leukemia ip, survival T/C. Nature of the assay: NCI In Vivo Anticancer Drug Screen. Data for tumor model L1210 Leukemia (intraperitoneal) in CD2F1 (CDF1) mice. To be noted: higher = longer survival. In a few lines: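 Antitumor effect is scored in animals hosting a serially transplanted tumor. Values compare compound-dosed animals against vehicle-only controls as a simple quotient.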

The mark [1] stands for this setting: endpoint: mean survival time, dose: 12.5 mg/kg/injection, schedule: Q01DX009 (ip), vehicle: saline with Tween-80.
Where [2] appears, read: endpoint: mean survival time, dose: 100.0 mg/kg/injection, schedule: Q01DX009 (ip), vehicle: saline with Tween-80.
[3] abbreviates: endpoint: mean survival time, dose: 200.0 mg/kg/injection, schedule: Q01DX009 (ip), vehicle: saline with Tween-80.
Where [4] appears, read: endpoint: mean survival time, dose: 100.0 mg/kg/injection, schedule: Q04DX003 (ip), vehicle: saline with Tween-80.
[5] abbreviates: endpoint: mean survival time, dose: 200.0 mg/kg/injection, schedule: Q04DX003 (ip), vehicle: saline with Tween-80.
Where [6] appears, read: endpoint: mean survival time, dose: 400.0 mg/kg/injection, schedule: Q04DX003 (ip), vehicle: saline with Tween-80.
The mark [7] stands for this setting: endpoint: mean survival time, dose: 400.0 mg/kg/injection, schedule: Q01DX009 (ip), vehicle: saline with Tween-80.

Values joined by “and” are separate entries in the source; they are usually repeats but may differ in a detail not shown here. Equal entries are not always repeated. Toxic doses and inconclusive results are not listed.

With `CNC(=O)ON=C(c1ccccc1)c1ccccc1`, the T/C runs as follows: (endpoint: mean survival time, dose: 100.0 mg/kg/injection, schedule: Q01DX001 (ip), vehicle: saline) 98 % of control; (endpoint: mean survival time, dose: 200.0 mg/kg/injection, schedule: Q01DX001 (ip), vehicle: saline) 104 % of control; (endpoint: mean survival time, dose: 400.0 mg/kg/injection, schedule: Q01DX001 (ip), vehicle: saline) 102 % of control.
Take `COc1ccc(/C=N\NC(=O)CNC(=O)Nc2cccc(C(F)(F)F)c2)cc1OC`: the T/C by setting is: under setting [1], 87 % of control; under setting [2], 96 % of control; under setting [3], 96 % of control.
`c1ccc2c(c1)Oc1ccccc1C2C1c2ccccc2Oc2ccccc21`: the T/C reads like this: under setting [4], 100 % of control; under setting [5], 100 % of control; under setting [6], 116 % of control.
Turning to `C=CCN1/C(=C/C=C\c2sc3ccccc3[n+]2CC=C)Sc2ccccc21`, the T/C was 110 % of control (endpoint: mean survival time, dose: 2.0 mg/kg/injection, schedule: Q04DX003 (ip), vehicle: saline) and 115 % of control (endpoint: mean survival time, dose: 4.0 mg/kg/injection, schedule: Q04DX003 (ip), vehicle: saline).
For the molecule `CCOC(c1ccccc1)(c1ccccc1)c1ccccc1`, the T/C is 98 % of control (endpoint: mean survival time, dose: 100.0 mg/kg/injection, schedule: Q01DX009 (ip), vehicle: other); 102 % of control (endpoint: mean survival time, dose: 200.0 mg/kg/injection, schedule: Q01DX009 (ip), vehicle: other); 96 % of control (endpoint: mean survival time, dose: 400.0 mg/kg/injection, schedule: Q01DX009 (ip), vehicle: other).
With `ClC=C(c1ccc(Cl)cc1)c1ccc(Cl)cc1`, the T/C is 97 % of control under setting [4], 97 % of control under setting [5] and 101 % of control under setting [6].
For `Cc1ccc(NS(=O)(=O)c2ccccc2)c([N+](=O)[O-])c1`, the T/C under setting [2] was 97 % of control; the T/C under setting [4] is 105 % of control; the T/C under setting [3] was 95 % of control; the T/C under setting [5] is 97 % of control; the T/C under setting [7] is 100 % of control; the T/C under setting [6] was 100 % of control.
With `CN(C)CC#N`, the T/C reads like this: (endpoint: mean survival time, dose: 5.0 mg/kg/injection, schedule: Q01DX009 (ip), vehicle: saline sonified) 97 % of control; (endpoint: mean survival time, dose: 5.0 mg/kg/injection, schedule: Q04DX003 (ip), vehicle: saline) 103 % of control; (endpoint: mean survival time, dose: 10.0 mg/kg/injection, schedule: Q01DX009 (ip), vehicle: saline sonified) 97 % of control; (endpoint: mean survival time, dose: 10.0 mg/kg/injection, schedule: Q04DX003 (ip), vehicle: saline) 97 % of control; (endpoint: mean survival time, dose: 20.0 mg/kg/injection, schedule: Q01DX009 (ip), vehicle: saline sonified) 98 % of control; (endpoint: mean survival time, dose: 20.0 mg/kg/injection, schedule: Q04DX003 (ip), vehicle: saline) 95 % of control.
For `Nc1ccc(S(=O)(=O)Nc2ccccc2C(=O)O)cc1`, the T/C was 102 % of control (endpoint: mean survival time, dose: 37.5 mg/kg/injection, schedule: Q01DX001 (ip), vehicle: saline with Tween-80); 101 % of control (endpoint: mean survival time, dose: 75.0 mg/kg/injection, schedule: Q01DX001 (ip), vehicle: saline with Tween-80); 95 % of control (endpoint: mean survival time, dose: 150.0 mg/kg/injection, schedule: Q01DX001 (ip), vehicle: saline with Tween-80).
Consider `O=C1OCCN1S(=O)(=O)c1ccc(Cl)cc1`, for which the T/C was 95 % of control under setting [2]; 104 % of control under setting [4]; 93 % of control under setting [3]; 102 % of control under setting [5]; 95 % of control under setting [7]; 98 % of control under setting [6].
For the molecule `NC(=O)CNC1=C(N2CC2)C(=O)C(NCC(N)=O)=C(N2CC2)C1=O`, the T/C runs as follows: (endpoint: mean survival time, dose: 5.0 mg/kg/injection, schedule: Q01DX009 (ip), vehicle: saline) 172 % of control; (endpoint: mean survival time, dose: 10.0 mg/kg/injection, schedule: Q01DX009 (ip), vehicle: saline) 180 % of control and 192 % of control; (endpoint: mean survival time, dose: 15.0 mg/kg/injection, schedule: Q01DX009 (ip), vehicle: saline) 91 % of control.
Take `[CH3][Sb]([CH3])([CH3])([O]C(=O)CC#N)[O]C(=O)CC#N`: the T/C by setting is: under setting [4], 92 % of control; under setting [5], 92 % of control; under setting [6], 97 % of control.
Take `O=c1c2ccccc2[nH]c2cccc([N+](=O)[O-])c12`: the T/C under setting [2] is 102 % of control; the T/C under setting [4] is 94 % of control; the T/C under setting [3] was 98 % of control; the T/C under setting [5] is 94 % of control; the T/C under setting [7] is 96 % of control; the T/C under setting [6] is 91 % of control.
In the case of `O=C1c2ccccc2C(=O)c2c(Sc3ccccc3)cccc21`, the T/C runs as follows: under setting [2], 97 % of control; under setting [3], 93 % of control; under setting [7], 92 % of control.
In the case of `CC(C)NC(=S)NC1=CCNN1c1ccccc1`, the T/C (endpoint: mean survival time, dose: 100.0 mg/kg/injection, schedule: Q04DX002 (ip), vehicle: saline with Tween-80) was 100 % of control; the T/C (endpoint: mean survival time, dose: 200.0 mg/kg/injection, schedule: Q04DX002 (ip), vehicle: saline with Tween-80) is 88 % of control; the T/C (endpoint: mean survival time, dose: 400.0 mg/kg/injection, schedule: Q04DX002 (ip), vehicle: saline with Tween-80) is 88 % of control.
Regarding `CCOC(=O)CO`, the T/C was 104 % of control (endpoint: mean survival time, dose: 50.0 mg/kg/injection, schedule: Q01DX009 (ip), vehicle: saline); 93 % of control (endpoint: mean survival time, dose: 100.0 mg/kg/injection, schedule: Q01DX009 (ip), vehicle: saline); 101 % of control (endpoint: mean survival time, dose: 200.0 mg/kg/injection, schedule: Q01DX009 (ip), vehicle: saline).
In the case of `Cc1ccc(C(=O)C2OC2c2ccccc2)cc1` (stereo not given), the T/C reads like this: (endpoint: mean survival time, dose: 100.0 mg/kg/injection, schedule: Q01DX001 (ip), vehicle: saline with Tween-80) 94 % of control; (endpoint: mean survival time, dose: 200.0 mg/kg/injection, schedule: Q01DX001 (ip), vehicle: saline with Tween-80) 100 % of control; (endpoint: mean survival time, dose: 400.0 mg/kg/injection, schedule: Q01DX001 (ip), vehicle: saline with Tween-80) 94 % of control.
In the case of `CC1CN1C(=O)Nc1cccc2c(NC(=O)N3CC3C)cccc12` (stereo not given), the T/C (endpoint: mean survival time, dose: 28.0 mg/kg/injection, schedule: Q01DX009 (ip), vehicle: Klucel (hydroxypropylcellulose) (HPC)) was 151 % of control.
For `N#CCCCN1CCCCC1`, the T/C runs as follows: (endpoint: mean survival time, dose: 6.25 mg/kg/injection, schedule: Q01DX009 (ip), vehicle: saline with Tween-80) 103 % of control; (endpoint: mean survival time, dose: 6.25 mg/kg/injection, schedule: Q04DX003 (ip), vehicle: saline) 89 % of control; under setting [1], 97 % of control; (endpoint: mean survival time, dose: 12.5 mg/kg/injection, schedule: Q04DX003 (ip), vehicle: saline) 98 % of control; (endpoint: mean survival time, dose: 25.0 mg/kg/injection, schedule: Q01DX009 (ip), vehicle: saline with Tween-80) 100 % of control; (endpoint: mean survival time, dose: 25.0 mg/kg/injection, schedule: Q04DX003 (ip), vehicle: saline) 93 % of control.
Consider `CCOC(=O)NC(S(=O)(=O)O)S(=O)(=O)O.[Tl]`, for which the T/C reads like this: (endpoint: mean survival time, dose: 6.25 mg/kg/injection, schedule: Q01DX001 (ip), vehicle: saline with Tween-80) 98 % of control; (endpoint: mean survival time, dose: 12.5 mg/kg/injection, schedule: Q01DX001 (ip), vehicle: saline with Tween-80) 90 % of control; (endpoint: mean survival time, dose: 25.0 mg/kg/injection, schedule: Q01DX001 (ip), vehicle: saline with Tween-80) 98 % of control.
Regarding `O=c1[nH]c(=S)c(SCc2ccccc2)nn1C1OC(CO)C(O)C1O` (stereo not given), the T/C by setting is: (endpoint: mean survival time, dose: 12.5 mg/kg/injection, schedule: Q01DX005 (ip), vehicle: distilled water + Tween-80) 95 % of control; (endpoint: mean survival time, dose: 25.0 mg/kg/injection, schedule: Q01DX005 (ip), vehicle: distilled water + Tween-80) 97 % of control; (endpoint: mean survival time, dose: 50.0 mg/kg/injection, schedule: Q01DX005 (ip), vehicle: distilled water + Tween-80) 100 % of control; (endpoint: mean survival time, dose: 100.0 mg/kg/injection, schedule: Q01DX005 (ip), vehicle: distilled water + Tween-80) 95 % of control; (endpoint: mean survival time, dose: 200.0 mg/kg/injection, schedule: Q01DX005 (ip), vehicle: distilled water + Tween-80) 94 % of control.
For `C=CC(C)(C)S(=O)[O-].C[c-]1[c-][c-][c-][c-]1.[C-]#[O+].[C-]#[O+].[Fe+6]`, the T/C reads like this: (endpoint: mean survival time, dose: 50.0 mg/kg/injection, schedule: Q04DX002 (ip), vehicle: saline) 109 % of control; (endpoint: mean survival time, dose: 100.0 mg/kg/injection, schedule: Q04DX002 (ip), vehicle: saline) 102 % of control.
Regarding `Nc1ncnc2c1nc(-c1ccccc1)n2C1OC(CO)C(O)C1O` (stereo not given), the T/C is 100 % of control (endpoint: median survival time, dose: 25.0 mg/kg/injection, schedule: Q01DX005 (ip), vehicle: distilled water + Tween-80); 97 % of control (endpoint: median survival time, dose: 50.0 mg/kg/injection, schedule: Q01DX005 (ip), vehicle: distilled water + Tween-80); 100 % of control (endpoint: median survival time, dose: 100.0 mg/kg/injection, schedule: Q01DX005 (ip), vehicle: distilled water + Tween-80); 100 % of control (endpoint: median survival time, dose: 200.0 mg/kg/injection, schedule: Q01DX005 (ip), vehicle: distilled water + Tween-80).
Consider `O=C(CNC(=O)c1ccccc1)N/N=C/c1ccncc1`, for which the T/C reads like this: under setting [2], 90 % of control; under setting [7], 92 % of control.
